Measurements published in patent US20120214862A1, “MODULATION OF FACTOR 7 EXPRESSION” (ISIS Pharmaceuticals, Inc., priority 2009, published 2012).
In the oligonucleotide strings, read from the 5' end, every base follows the letter of its sugar. An asterisk marks phosphorothioate; unmarked linkages are phosphodiester. Other units and linkages are bracketed, terminal groups are in braces. A string of capitals states the bases alone. e = 2'-O-(2-methoxyethyl) (MOE); [5mC] = 5-methylcytosine; d = 2'-deoxy (DNA)

Tests used:
human Factor 7 mRNA = assay: Inhibition of human Factor 7 mRNA by 2-10-2 MOE shortmers in HepB3 cells, electroporation, 1,000 nM; assay type: cell-based; conditions: electroporation, 1,000 nM oligonucleotide, approximately 24 hours, relative to untreated control cells
How it was run: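 14-mer 2-10-2 2′-MOE gapmers, full phosphorothioate, 5-methylcytidines, electroporated at 1,000 nM into HepB3 cells (20,000/well). After ~24 h, mRNA quantified by real-time RT-PCR, normalized to RIBOGREEN total RNA; percent inhibition relative to untreated cells.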

platelet factor-4 (PF-4) = assay: FeCl3 induced venous thrombosis (VT) model, real-time RT-PCR quantification of PF-4 in vena cava as measure of thrombus formation; assay type: in vivo, mouse; conditions: for PF-4 (percent of PF-4 mRNA as compared to the PBS + FeCl3 control) / PF-4 (percentage compared to PBS controls): BALB/c mice; for PF-4 (percent of PF-4 mRNA as compared to the PBS + FeCl3 control): no Plavix; for PF-4 (percentage compared to PBS controls): vena cava
Method: Two control groups of BALB/c mice were treated with PBS, administered subcutaneously twice a week for 3 weeks. Thrombus formation was induced with FeCl3 in half of the mice while the rest of the mice were assayed for tail bleeding. […] Thrombus formation was induced with FeCl3 in all groups of the VT mice except the first control group.
(§1) In mice undergoing FeCl3 treatment, thrombus formation was induced by applying a piece of filter paper (2×4 min) pre-saturated with 10% FeCl3 solution directly on the vena cava. After 3 minutes of exposure, the filter paper was removed. Thirty minutes after the filter paper application, a fixed length of the vein containing the thrombus was dissected out for platelet analysis. Liver was collected for RNA analysis.
(§2) Real-time RT-PCR quantification of platelet factor-4 (PF-4) was used to quantify platelets in the vena cava as a measure of thrombus formation.
Six additional groups of BALB/c mice was treated with 0.5 mg/kg, 1 mg/kg, 2 mg·kg, 3 mg/kg, 4 mg/kg, or 5 mg/kg of warfarin, administered intraperioneally daily for 6 days. Four hours after the last dose of warfarin, mice were sacrificed. A control group of BALB/c mice were treated with PBS, administered subcutaneously twice a week for 3 weeks. Two days after the last dose of PBS, mice were anesthetized with 150 mg/kg ketamine mixed with 10 mg/kg xylazine administered by intraperitoneal injection. Thrombus formation was induced with FeCl3 in groups of mice except the first control group.
as §1, with “mm)” for “min)”
as §2
Thrombus formation was induced with FeCl3 in all of the mice except the first […] control groups. All mice were anesthetized with 150 mg/kg of ketamine mixed with 10 mg/kg of xylazine administered by intraperitoneal injection.
After 3 minutes of exposure, the filter paper was removed. Thirty minutes after the filter paper application, a fixed length of the vein containing the thrombus was dissected out for platelet analysis.
Real-time PCR quantification of PF-4 was used to quantify platelets in the vena cava as a measure of thrombus formation. […] Data is presented as percent of PF-4 mRNA as compared to the PBS+ FeCl3 control, […]

407939 (antisense eT*eG*e[5mC]*eA*eG*d[5mC]*d[5mC]*d[5mC]*dG*dG*d[5mC]*dA*d[5mC]*d[5mC]*d[5mC]*eA*eG*e[5mC]*eG*eA) [compound 407939]
% inhibition of human Factor 7 mRNA (human Factor 7 mRNA): 81%

CCATAGAACAGCTTCACAGG (sugars from the 5' end e5 d10 e5, backbone and methylation of C not given here) [ISIS 403102]
PF-4 (percent of PF-4 mRNA as compared to the PBS + FeCl3 control) (platelet factor-4 (PF-4); with FeCl3, ISIS 403102 20 mg/kg s.c. twice a week for three weeks): 39% | PF-4 (percent of PF-4 mRNA as compared to the PBS + FeCl3 control) (platelet factor-4 (PF-4); without FeCl3, ISIS 403102 20 mg/kg s.c. twice a week for three weeks): 2% | PF-4 in comparison to the PBS control (platelet factor-4 (PF-4); Example 14, 25, 37.5 or 50 mg/kg sc twice a week for 3 weeks): reduction of PF-4 | PF-4 in comparison to the PBS control (platelet factor-4 (PF-4); Example 16, dosages of 5 mg/kg and higher, sc twice a week for 3 weeks): dose-dependent reduction of PF-4 | PF-4 (percentage compared to PBS controls) (platelet factor-4 (PF-4); FeCl3 (Example 16), 1 mg/kg s.c. twice a week for 3 weeks): 120% | PF-4 (percentage compared to PBS controls) (platelet factor-4 (PF-4); FeCl3 (Example 16), 3 mg/kg s.c. twice a week for 3 weeks): 112% | PF-4 (percentage compared to PBS controls) (platelet factor-4 (PF-4); FeCl3 (Example 16), 5 mg/kg s.c. twice a week for 3 weeks): 69% | PF-4 (percentage compared to PBS controls) (platelet factor-4 (PF-4); FeCl3 (Example 16), 10 mg/kg s.c. twice a week for 3 weeks): 22% | PF-4 (percentage compared to PBS controls) (platelet factor-4 (PF-4); FeCl3 (Example 16), 20 mg/kg s.c. twice a week for 3 weeks): 41% | PF-4 (percentage compared to PBS controls) (platelet factor-4 (PF-4); FeCl3 (Example 16), 40 mg/kg s.c. twice a week for 3 weeks): 38% | PF-4 (percentage compared to PBS controls) (platelet factor-4 (PF-4); FeCl3, 25 mg/kg s.c. twice a week for 3 weeks): 34% | PF-4 (percentage compared to PBS controls) (platelet factor-4 (PF-4); FeCl3, 37.5 mg/kg s.c. twice a week for 3 weeks): 24% | PF-4 (percentage compared to PBS controls) (platelet factor-4 (PF-4); FeCl3, 50 mg/kg s.c. twice a week for 3 weeks): 24%
